The source of these data is US11371994B2, “Phosphorylated Akt-specific capture agents, compositions, and methods of using and making” (California Institute of Technology, priority 2013, dated 2022).

Entries after “also recorded” stand apart in the source; their conditions may differ. Square brackets hold non-standard residues; d marks the D form. Ends that are not written are not given here. * marks the point of attachment. S3 = D-Pra clicked to acylated azidolysine-PEG2-biotin, with 5-azido-pentanoic acid; 5FAM = O=C1OC2(c3ccc(O)cc3Oc3cc(O)ccc32)c2ccc(C(=O)*)cc21; 5‑azidopentanoyl = [N-]=[N+]=NCCCCC(=O)*; Lys(N3) = [N-]=[N+]=NCCCC[C@H](N)C(=O)O; Peg2 = PEG spacer (Fmoc-NH-(PEG)2-OH); dPra = C#CC[C@@H](N)C(=O)O; Ahx = NCCCCCC(=O)O

Test [1] deals with T1, Akt2 (Homo sapiens, UniProt P31751). Put plainly: Single component ELISA, PCC agent as capture or detection agent (relative affinity). The format is binding. Also noted: purchased Abcam. From the text:
FIG. 23: A. ELISA assays in which the PCC Agents are utilized as either as surface-localized capture agents (for N-tL, C-tL) or as the detection agent (for mono-L, bi-L). Such assays provide relative affinity measurements, which are given as EC50 values in the key. […] C. C-tL distinguishes the full length Akt2 from isoform proteins Akt1 and Akt3. D. The 32 amino acid long C terminal fragment from Akt2, Akt1 and Akt3. The hydrophobic motif is highlighted in blue. pS refers to phospho-serine. […] F. Selectivity assays: Biotinylated ligands or biotinylated pS473 antibody is immobilized on streptavidin-agarose and treated with OVCAR3 cell lysate. The eluents are stained with a pan-Akt antibody or pS473 Akt antibody.
1.25 μM biotinylated ligand was prepared by diluting the 1 mM stock in binding buffer (25 mM tris chloride, pH=7.4, 150 mM NaCl, 0.1% BSA, 0.05% Tween 20). The prepared ligand solution or 0.125% DMSO in buffer (buffer control) was immobilized on a High Capacity Streptavidin 96 well plate (Thermo Scientific). After washing away the excess ligand, the plate was blocked overnight with 1% BSA/25 mM tris chloride, pH=7.4/150 mM NaCl, 0.05% Tween 20. 2.5 μM solutions of the His6 (SEQ ID NO:28) tagged target phosphopeptide epitope Akt2 amino acids 450-481, His6 (SEQ ID NO:28) tagged Akt1 amino acids 449-480, His6 (SEQ ID NO:28) tagged Akt3 amino acids 448-479 were added to each of the wells. Following three washes with the binding buffer, the plate was treated for an hour with a 1:1000 dilution of anti His6 (SEQ ID NO:28) mouse monoclonal antibody. A 1:10,000 dilution of goat anti mouse antibody-Horse Radish Peroxide conjugate in binding buffer was added to the wells. The plates were washed four times, five minutes each, with 0.05% Tween 20/TBS (25 mM tris chloride, pH=7.5, 150 mM NaCl) and once with TBS (25 mM tris chloride, pH=7.5, 150 mM NaCl). Color was developed by adding TMB substrate (KPL) to each well. The reaction was quenched with 0.5 M H2SO4. The A450 measured on a 96-well plate reader. The Net A450 was obtained by subtracting the absorbance value for the blank control (no immobilized ligand) from each of the triplicate values obtained for the ligand-epitope interaction. The selectivity assay with full length His6 (SEQ ID NO:28) tagged Akt1, Akt2 and Akt3 was performed following the same protocol, using 25 nM protein instead of 2.5 μM His6 tagged peptide epitope.

Test [2] addresses T1, Akt2. Put plainly: Non-radioactive kinase assay, phosphorylation of GSK-3α/β fusion protein. The arrangement: purchased Abcam. To be noted: relative to DMSO control. The format is biochemical. As to the method: The non-radioactive kinase assay kit for Akt2 was purchased from Cell Signaling. Ligand solutions were made in DMSO. Kinase reactions were set up in 1× kinase buffer (25 mM trisHCl (pH 7.5), 10 mM MgCl2, 0.01% Triton-X, 1× Complete protease inhibitor (Roche), 1× Phosstop phosphatase inhibitor (Roche)), each 25 μL reaction mixture containing 400 ng Akt2, 400 ng GST-GSK-3α/β fusion protein, […] and 0.5 μL of peptide solutions in DMSO or DMSO only. Reactions were allowed to proceed for 30 minutes at 30° C. A reaction mixture was also prepared using a 1:2.5 dilution of anti pS473 antibody (Cell Signaling) in the kinase buffer instead of the peptide ligand or DMSO. The reactions were quenched by adding 12.5 μL of 2×SDS sample loading buffer and heating at 95° C. for five minutes. 10 μL from each sample was loaded on an any kD SDS gel (BioRad) and run for an hour at 110 volts. Following semidry transfer of the gel to a nitrocellulose membrane, the membrane was blocked in 5% nonfat milk/TBST for an hour at 4° C., and treated overnight at 4° C. with a 1:200 dilution of Phospho GSK-3α/β Ser (21/9) rabbit antibody (Cell Signaling) in 0.5% milk/TBST. Following washes, the membrane was treated with a 1:2000 dilution of mouse anti-rabbit-HRP antibody for an hour at 4° C. After four five minute washes with TBST, and one five minute wash with TBS, the membrane was treated with West Dura ECL substrate (Thermo Scientific) and imaged on film.

The target in the next test is T2, Akt (Homo sapiens, UniProt P31751).
T2 construct: endogenous in cells; host or cells: OVCAR3
T2 sequence (P31751 whole entry): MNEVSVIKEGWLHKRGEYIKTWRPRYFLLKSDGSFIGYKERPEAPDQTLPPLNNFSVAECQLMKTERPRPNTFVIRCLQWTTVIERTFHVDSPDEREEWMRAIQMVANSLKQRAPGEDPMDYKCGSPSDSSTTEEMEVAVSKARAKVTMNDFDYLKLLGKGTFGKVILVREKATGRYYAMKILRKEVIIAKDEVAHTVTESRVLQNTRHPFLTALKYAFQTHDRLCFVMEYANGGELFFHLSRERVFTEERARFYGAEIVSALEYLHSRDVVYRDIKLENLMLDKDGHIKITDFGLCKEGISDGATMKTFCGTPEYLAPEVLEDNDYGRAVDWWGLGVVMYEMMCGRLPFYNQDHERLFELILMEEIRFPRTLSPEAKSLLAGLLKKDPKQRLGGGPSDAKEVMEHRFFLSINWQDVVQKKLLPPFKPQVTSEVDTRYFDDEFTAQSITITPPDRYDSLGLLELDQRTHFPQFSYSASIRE
In words: OVCAR3 lysate pull-down (immunoprecipitation) assay. The format is binding. To be noted: for immunoprecipitation of Akt from OVCAR3 cell lysate: eluents stained with pan-Akt antibody. As to the method: OVCAR3 cells (ATCC) were grown in RPMI-1640 media containing 20% fetal bovine serum. Passage three cells were grown to ˜80% confluence. Cells were lysed with lysis buffer (10 mM Tris-Cl (pH=7.5), 100 mM NaCl, 1% (v/v) Triton X-100, 0.1% SDS (w/v), 0.5% deoxycholate, 1 mM DTT, 1 mM EDTA, 1× PhosStop phosphatase inhibitors (Roche), 1× Complete protease inhibitors (Roche)) and the amount of protein measured using BCA Protein Assay Kit (Pierce Biotechnologies, Inc). Streptavidin-agarose resin solution (EMD) was swelled in TBST (25 mM tris chloride, pH=7.5, 150 mM NaCl, 0.05% Tween-20). Each of the biotinylated ligands was immobilized on the Streptavidin-agarose resin by adding 7.2 μL of 1 mM ligand stock (DMSO) to 10 μL of the swelled streptavidin-agarose resin. For the blank control, the resin was treated with 7.2 μL of 1 mM biotinylated acyl glycine. […] After shaking overnight at 4° C., 50 μM D-biotin was added to the resin to block any remaining sites. The resin was washed with TBST five times, for fifteen minutes each. The resin was then swelled in binding buffer for two hours. To each of the immobilized ligands, 200 μL OVCAR3 cell lysate (1.9 mg/ml) was added. The tubes were shaken at 4° C. for 18 hours. The beads were extensively washed, three times for fifteen minutes in binding buffer, three times (fifteen minutes) in TBST, and three times (fifteen minutes) in TBS to remove unbound proteins. The resin bound proteins were eluted by adding 40 μL of 2×SDS-PAGE sample loading buffer (BioRad) and heating at 95° C. for five minutes. A 1:10 diluted sample of lysate in sample loading buffer was prepared by mixing 1 μL of the sample with 9 μL sample loading buffer and denaturing the sample by heating at 95° C. for five minutes. 10 μL of each sample was loaded on a 12% SDS-PAGE gels (BioRad) and run for 80 minutes at 110 volts. Three identical gels were loaded and run at the same time. One gel was used for Coomassie staining with Coomassie Fluor Orange Protein Gel Stain (Molecular Probes) following the manufacturer's protocol. The two other gels were transferred to nitrocellulose membranes by the semidry transfer method, blocked for two hours at 4° C. with 5% non-fat milk, and treated overnight at 4° C. with a 1:1000 dilution of pan-Akt rabbit monoclonal antibody (Cell Signaling Technology) and a 1:1000 dilution of pS473 Akt rabbit monoclonal antibody (Cell Signaling Technology), respectively, in 0.5% non-fat milk. The membranes were washed and treated for an hour with a 1:10,000 dilution of monoclonal mouse anti-rabbit-HRP secondary antibody (Cell Signaling Technology) in 0.5% milk. After five washes of five minutes each with TBST and one wash of five minutes with TBS, the blots were developed with West Dura ECL substrate (Thermo Scientific) and imaged on film.

Test [3] concerns the target T1, Akt2. To be noted: read-out: equilibrium dissociation constant KD; SPR, Akt2 protein as analyte, 1:1 binding model, 10° C.
Experimental: A Biacore T100 machine was used for SPR experiments. A Streptavidin Chip (Series S, G.E. Healthcare) was conditioned as per manufacturer's recommendation. A stock of 1 mM biotinylated ligand was diluted into HBSP+ Buffer (G.E. Healthcare) to a final concentration of 100 nM and ˜150 RU was immobilized on the chip. Serial dilutions of the Akt2 protein were made in HBSP+ buffer for the experiment with the immobilized N-tL. The solution was flowed over the chip at 50 μL/min. Binding and dissociation were carried out at 10° C. with a contact time of 350 sec, a dissociation time of 390 sec, and a stabilization time of 200 sec, with buffer blanks between each concentration. The response was double corrected, using an unmodified reference flow cell and the response for the 0 concentration of Akt2 on the sample flow cell. The data was fitted to the kinetic Langmuir 1:1 binding model using the Biacore Evaluation software for T100 to calculate the dissociation constant.
Test [4] has as its system SKOV3 ovarian cancer cells. Put plainly: Western blots of treated SKOV3 cells (Akt signaling pathway). The format is cell-based. As to the method: Western blots were performed according to standard protocols. Briefly, cells were lysed with cell lysis buffer (Cell Signaling Technology) containing protease and phosphatase inhibitors (Cell Signaling Technology). Cell lysates were quantified with a Bradford protein assay (Thermo Scientific) and prepared for gel electrophoresis in Laemmli sample buffer and reducing agent. 20 μg of cell lysate were added to precast polyacrylamide gels (Bio-Rad) and proteins were separated by electrophoresis followed by transfer to PVDF membrane. Membranes were then blocked and probed with primary antibodies followed by horseradish peroxidase-conjugated secondary antibodies. The following antibodies were used according to manufacturer protocol: p-GSK3β (Cell Signaling, 9323), GSK3 β (Cell Signaling, 12456), AKT (Cell Signaling, 4691), p-AKT (S473) (Cell Signaling, 4060), Actin (Cell Signaling, 8456), HRP-linked Anti-rabbit IgG (Cell Signaling, 7074). The bands were visualized by chemiluminescence (Thermo Scientific).
(Immunoblotting shows a protein as a band on a membrane.)

In another test the test system is SKOV3 cells. In words: XTT cell viability assay. The format is cell-based. To be noted: 50 μM. As to the method: (§1) The XTT assay kit was purchased from Cell Signaling Technology (#9095) and used according to manufacturer protocol. Briefly, 1×10^4 cells were seeded in a 96-well plate. The following day, cells were serum starved and treated with capture agent. Following treatment, the XTT tetrazolium salt was added to the media and after 1 hour the absorbance at 450 nm was measured in a 96-well plate reader.
For orientation: Tetrazolium assays rely on reduction of a dye to a coloured formazan, in cell work by metabolically active cells.

The test system of the next test is OVCAR3 cells. Put plainly: XTT cell viability assay. The format is cell-based. To be noted: 50 μM. As to the method:
as §1

T1 sequence (P31751 whole entry, the tested form may be a part, canonical isoform): as the sequence (P31751 whole entry) above

On to `CC(=O)NC(CCCCn1cc(C[C@@H](NC(=O)[C@H](CCCCn2cc(C[C@@H](NC(=O)[C@@H](Cc3ccccc3)NC(=O)[C@@H](Cc3ccc(O)cc3)NC(=O)CNC(=O)[C@@H](CC(N)=O)NC(=O)[C@@H](Cc3c[nH]cn3)NC(=O)[C@H](CCCCn3cc(C[C@@H](NC(C)=O)C(=O)N[C@H](Cc4ccc(O)cc4)C(=O)N[C@H](Cc4ccc(O)cc4)C(=O)N[C@H](CCCNC(=N)N)C(=O)N[C@H](Cc4ccccc4)C(=O)NCC(N)=O)nn3)NC(C)=O)C(=O)O)nn2)NC(C)=O)C(=O)N[C@H](Cc2c[nH]c3ccccc23)C(=O)N[C@H](CCCCN)C(=O)N[C@@H](C(=O)N[C@H](CCCCN)C(=O)N[C@H](CC(C)C)C(N)=O)C(C)C)nn1)C(=O)NCCOCCOCCOCCC(=O)NCCNC(=O)CCCC[C@@H]1SC[C@@H]2NC(=O)N[C@@H]21` (some centres unmarked) [N-tL], for which, at Akt2 [1] (read-out: EC50 from single component ELISA), the EC50 (in general, the concentration giving half of the maximal effect) was determined as 19 nM. At Akt2 [1] (strongest binding triligand), this molecule showed an affinity of approximately 20 nM. Also, on Akt2 [2], the “influence on Akt2 kinase activity (p-GSK-3α/β level)” value (“influence … (p-GSK-3α/β level)” below) was “activate Akt above baseline; also recorded: activate Akt2”. Also, the “immunoprecipitation of phosphorylated Akt from OVCAR3 cell lysate” value at Akt (eluents stained with pS473 Akt antibody) is “immunoprecipitate comparable amounts of active pS473 Akt”. Also, the “immunoprecipitation of Akt from OVCAR3 cell lysate” value is “immunoprecipitates more Akt, irrespective of its phosphorylation state” on Akt and “more efficient; also recorded: immunoprecipitate Akt2 from OVCAR3 cells” on Akt (listed as N-tri1). Moreover, the Kd (in general, a measure of binding affinity in units of concentration) on Akt2 [3] came to 25 nM.

As for “tri_a: Akt-activating N-terminal triligand, conjugated to HIV TAT peptide via PEG spacers for cell assays (FIG. 28, 33A) (peptide 1 WKVKL; peptide 2 HNGYF; peptide 3 XYYRFG; peptide 4 GRKKRRQRRRPPQQ; not fully specified; D-residues; non-natural residues)”, the p-Akt level entry in test [4] (50 μM, time course) is “initially increases and then steadily decreases over time”. Further, the p-GSK-3β level result in test [4] (50 μM, time course) was “highest level of GSK3B phosphorylation is seen after 1 hour treatment; also recorded: clear increase in the p-GSK-3β level relative to the untreated and EGF-stimulated cells”. For the same molecule, the “influence … (p-GSK-3α/β level)” value with Akt2 [2] is “activate”. For the same molecule, the “cell viability (XTT)” value with SKOV3 cells is “significant increase in viability after 1 day treatment followed by a decline; also recorded: initial spike in cell viability after 24 hours, followed by a linear decrease with time”; in the test with OVCAR3 cells, “significant increase in viability after 1 day treatment followed by a decline; also recorded: sharp increase after 24 hours is followed by a steady decrease before finally stabilizing”.

In the case of “tri_i: Akt-inhibiting C-terminal triligand, TAT-modified, with fluorescein label (FIG. 31, 35a) (peptide 1 Ac-[Lys(N3)][dH][dD]GG[dF]; peptide 2 S3-[dW][dK][dV][dK]; peptide 3 {5FAM-Ahx-Cys-Peg2}-[dH][dN]G[dY][dF][dPra]; peptide 4 {5‑azidopentanoyl-Peg2}-GRKKRRQRRRPPQQ-NH2; not fully specified (C-terminus); also: arms joined by triazoles, fluorescein label (Peg2-Cys-Ahx-5-carboxyfluorescein) coupled via DBCO-maleimide to TAT)”, the “phospho-GSK-3β level after pretreatment and EGF stimulation” value was “less phospho-GSK-3β than EGF stimulation alone; also recorded: less phospho-GSK3-β than untreated cells stimulated with EGF alone” in test [4] (50 μM, 1, 6 and 12 hours pretreatment, then EGF 10 minutes); “dramatic increase in levels of phospho-GSK3-β” in test [4] (50 μM, 24 hours pretreatment, then EGF). Further, in the test with Akt2 [2], the “influence … (p-GSK-3α/β level)” value is given as “inhibit”. Further, the “cell viability (XTT)” value in the test on SKOV3 cells is “significant decrease in viability after 1 day treatment; also recorded: initial drop in cell viability and remain consistently lower than untreated cells for 5 days”; with OVCAR3 cells, “significant decrease in viability after 1 day treatment; also recorded: initial drop in cell viability after 24 hours, followed by an increase before finally decreasing again”.
